pIC50: −log10 of the molar value. “And” between values parts separate entries of the source, which are not always exact repeats. Equal values may be shown once.
Experiments:
psoriasis = test: 1% cream on volunteers with psoriasis; assay type: in vivo, human; conditions: topical, once per day, vs control cream
Description: The biological activity of the compounds of this invention can be determined by measurement of the effect of the test compound in vivo because there is no animal model suitable for the diseases. The compounds were tested on volunteers. In these tests, representative compound of this invention, i.e., 3,5-dihydroxy-4-isopropylstilbene is active in reducing or eliminating symptoms of psoriasis and eczema.
A 1% cream of 3,5-dihydroxy-4-isopropylstilbene was prepared for tests on volunteers. Three volunteers, each with a long psoriasis history, were recruited for the tests. Neither of them was on any medication a month before the initiation of the test.
Volunteer 1, person, with scalp psoriasis for more than 15 years. They had used various conventional drugs and treatments, include, steroids, phototherapy and other medicine during the course of their illness. All of these treatments had no or very limited effect on this psoriasis.
Volunteer 2, person, with plaques on their back. They had used hydrocortisone before and stopped using it because of side effects.
The volunteers were treated once per day by applying the creams once per day on top of the affected area with the basic cream as the control (except for volunteer 3). […] The cream of the invention contained 1% 3,5-dihydroxy-4-isopropylstilbene. The control cream was identical except that it contained no 3,5-dihydroxy-4-isopropylstilbene. […]

DSS-induced IBD = test: DSS (2%) IBD mouse model, preventive experiment; assay type: in vivo; conditions: 500 mg/kg/day oral with 2% DSS, day 7
Description: To assess the in vivo efficacy for preventive and therapeutic activities of these compounds on IBD, two experiments were designed and tested using the dextran sulfate sodium (DSS) experimental mouse model for human IBD. For the preventive experiment, compounds 9A and 39B were simultaneously administrated orally with 2% DSS at the dose of 500 mg/kg/day. Vehicle alone and glucocorticoid (dexamethasone 20 mg/kg/day) were used as controls. At day 7, mice were sacrificed, examined for stool appearance, diarrhea and colon macroscopic damage including ulceration, inflammation and adhesion. Colon samples were also taken and fixed in 10% formalin for histological assessment of architecture, ulceration, inflammation and serosal damage.

TPA-induced ear edema = TPA-induced ear edema model; assay type: in vivo, mouse; conditions: 0.3% single topical, TPA 0.01%, ear thickness 6 hours after TPA
Description: Experiment: Three representative compounds, 5-(2-phenylethenyl)-2-1-propyl-1,3-benzenediol, as previously reported, a closely related stilbene derivative (WO 0142231) and compound 39B, a novel compound of the current invention, were assayed against the edema on female mice (Balb/c) aged 10-12 weeks, using 0.01% Calcitriol (a commercial standard) as a positive control. Phorbol-12-myristate-13-acetate (TPA) was used as the edema inducer. TPA and the test compounds were all dissolved in 100% ethanol and 20 μl applied on the right ear of the mouse with six mice per group. The TPA concentration used was 0.01% (w/v). Ear thickness was measured 6 hours after TPA treatment to determine if edema was decreased. In each experiment replicated groups of TPA treated mice were treated with either 5-(2-phenylethenyl)-2-1-propyl-1,3-benzenediol, Calcitriol, compound 39B or only ethanol, and the level of inhibition was obtained by measuring the thickness of the ear and expressing the difference in thickness of the treated ear from that of the ethanol treated ear, as a percentage.

eczema = test: 1% cream on volunteer with eczema; assay type: in vivo, human; conditions: topical, right side, control triamcinolone acetonide 0.5% left side
[1] = system: acute colon inflammation induced by 5% DSS; test: DSS (5%) acute colon inflammation mouse model, therapeutic experiment; assay type: in vivo; conditions: for Bleeding score / Diarrheal score: day seven, mean ± SEM, n = 9, 1 = normal; for Bleeding score: 2 = bloody stool, 4 = gross bleeding; for Diarrheal score: 2 = loose stools, 4 = diarrhea
From the text: To assess the in vivo efficacy for preventive and therapeutic activities of these compounds on IBD, two experiments were designed and tested using the dextran sulfate sodium (DSS) experimental mouse model for human IBD.
For the therapeutic experiment a further experiment was done to test different doses of 9A on severe, acute intestinal inflammation in mice induced by a high dose of DSS (5%). In this experiment, drug treatment started from day 3 post DSS induction when disease symptom was established. 9A (200 mg/kg or 100 mg/kg) was administered through oral […] once daily and a commercial drug, sulfasalazine (SASP, 100 mg/kg/day) was used as positive control. Experiment was terminated at day 7 and the efficacy was assessed.

[2] = system: human white blood cells (WBC); test: Migration of human white blood cells induced by leukotriene B4 (agarose plate); assay type: cell-based; conditions: for % Migration: towards LTB4, 5 h
Description: Experiment: WBC collected from donors was mixed with equal volume of 3% dextran (in 0.15M NaCl). The red blood cells were sedimented (45 minutes, room temperature) and removed. Any remaining red blood cells in the plasma were removed by adding 150 mM of Tris-NH4Cl. The leukocyte-rich plasma was washed twice in Hanks balanced salts solution containing 20 mM HEPES. The WBC was then transferred to RPMI-1640 medium and adjusted to a density of 5×10^7 cells/ml. An agarose plate assay system (Nelson et al. 1978) was used to measure the WBC migration. Briefly, a 0.8% agarose solution was prepared with complete RPMI-1640 cell culture medium. About 3.5 ml of this agarose solution was transferred to a glass slide before it solidified. Wells were made on the slide in a 3×6 array fashion (02 mm, inter-well distance 3 mm) once the agarose had solidified. LTB4 was dissolved in anhydrous ethanol to 104 ng/ml and further diluted with the RPMI-1640 medium to 10 ng/ml for the test. Compound 39B was dissolved in DMSO, diluted with RPMI-1640 to 10^3 μg/ml and tested at the following concentrations: 100, 10, 1, 0.1 and 0.01 μg/ml. Ten microlitres of cell suspension with different concentrations of compound 39B was added to each well of the center row of the three rows of wells. The same volume of LTB4 in RPMI-1640 medium or the medium alone was added to wells in the other rows and served as controls. After 5 h incubation (5% CO2, 37° C.) the test slides were fixed with 100% methanol (30 min) and dried at 4° C. (overnight). The slides were then examined microscopically. The migration index was defined as the average distances that cells migrated towards the positive LTB4 well divided by that of spontaneous migration. The percentage migration was compared between treatment and the non-drug control. The dose-effect relationship was determined by plotting the percentage chemotaxis vs concentration for IC50 values.

IFN-γ = IFN-γ production by PHA-stimulated human PBMC (ELISA); assay type: cell-based; conditions: PHA-stimulated human PBMC, supernatant after 48 hours, ELISA
Description: (§1) (a). Effect on proliferation and IFN-γ production of human peripheral blood mononuclear cells (PBMC) stimulated by phytochemagglutinin (PHA).
(§2) Experiment: PBMC were cultured with PHA and cultured with titrated concentrations of compounds or solvent, or media alone using standard cell culture techniques. The MTT assay was performed after 48 hours of culture. Supernatants were collected after 48 hours of culture and levels of IFN-γ were assayed by ELISA.

VEGF = VEGF protein expression of keratinocytes induced by rhTGF-α (ELISA); assay type: cell-based, human; conditions: for VEGF: supernatant, rhTGF-α 100 ng/ml, 24 h
Description: Experiment: Compound 39B was dissolved in DMSO, diluted with keratinocyte-serum-free medium (KC-SFM) to 10^3 μg/ml, further diluted with the culture medium and tested at the following concentrations: 10, 1, 0.1 and 0.01 μg/ml. Prime cultures of keratinocytes were obtained from a commercial source and maintained with KC-SFM at a cell density of 10^6/ml. In the test, cells were cultured in 24-well plates and incubated at 37° C. in 5% CO2 first for 4 h, and then treated with rhTGF-α (final concentration 100 ng/ml) and the test compound at different concentrations (0.01-10 μg/ml). Medium without test compound was the negative control. The culture supernatant from each well was separately collected after an additional 24 h incubation and centrifuged at 2000 rpm for 5 minutes before measuring the VEGF concentration. VEGF concentration in the supernatant in each well was calculated based on measurements taken using an ELISA kit, according to the manufacturer's instructions.

TNF-α = test: Endotoxemia mouse model, serum TNF-α after LPS; assay type: in vivo
From the text: The in vivo endotoxemia model used in these studies represents a mouse showing the early inflammatory response. Such severe infection can be caused by Gram negative bacteria may lead to the development of septic shock. This toxicity is caused by the lipopolysaccharide (LPS) component of the bacterial cell wall, and injection of LPS into mice can mimic the physiological response typical of the septic shock syndrome. LPS-mediated toxicity is due to the release of cytokines such as TNF-α, IL-1 and IFN-γ by activated macrophages, and the degree of toxicity can be measured by the level of these cytokines in the blood.
Experiment: Test compounds were dissolved and formulated in 50% PEG-400 in water. Female Balb/c mice (˜20 g) were first injected separately intraperitoneally (IP) with 25 mg/kg of each test compound, then challenged by injection with 40 mg/kg lipopolysaccharide (LPS) (IP) 30 minutes later. One drug injection with 12.5 mg/kg of test compound was done at the same time as (LPS challenge and two subsequent sequential injections at 30 minutes intervals. Positive control of dexamethasone was administered in a similar manner starting at 0.4 mg/kg and subsequently 0.2 mg/kg for three additional injections. Mice were sacrificed and blood collected by cardiac puncture 150 minutes after LPS challenge. The serum TNF-α levels were determined by ELISA. Each test group was comprised of six mice. Group of mice injected with the vehicle alone was used as negative control.

human PBMC = test: Proliferation of PHA-stimulated human PBMC (MTT); assay type: cell-based; conditions: PHA-stimulated, MTT after 48 hours; read-out: IC50 against human PBMC proliferation
Description: as §1, §2

## CC(C)c1c(O)cc(/C=C/c2ccccc2)cc1O [Compound 9A, 3,5-Dihydroxy-4-isopropyl-trans-stilbene]
psoriasis
  effect on psoriasis, volunteer 1 (scalp psoriasis): completely clearance in 7 days
  effect on psoriasis, volunteer 2 (plaques on back): significant improvement of the psoriasis
DSS-induced IBD
  macroscopic and microscopic diseases scores: significantly decreased
TPA-induced ear edema
  % edema inhibition: 8%
eczema
  effect on eczema, volunteer 3: disease symptoms completely disappeared by week 2
[1]; 100 mg/kg oral daily
  Bleeding score: 3.3 ± 0.37
  Diarrheal score: 2.0 ± 0.73
[1]; 200 mg/kg oral daily
  Bleeding score: 3.2 ± 0.49
  Diarrheal score: 2.4 ± 0.45
[1]; 5% DSS, treatment from day 3
  survival rate vs control treatment: significantly higher survival rate
[1]; daily oral treatment from day 3 post 5% DSS, vehicle control 33%
  survival rate: 67%

## CC(C)c1c(O)cc(C=Cc2ccc(F)cc2)cc1O [Compound 39B]
[2]
  inhibition of migration of WBC towards LTB4: dose-dependent manner
[2]; 0.32 μM
  % Migration: 88.46 ± 18.6%
[2]; 1.6 μM
  % Migration: 83.85 ± 15.9%
[2]; 8 μM
  % Migration: 58.46 ± 4.3%
[2]; 40 μM
  % Migration: 13.07 ± 5.8%
IFN-γ
  pIC50: 5.38
VEGF; 1.6 μM
  VEGF: 34.4 ± 2.0 pg/mL
VEGF; 8 μM
  VEGF: 33.6 ± 1.8 pg/mL
VEGF; 40 μM, 24-h treatment
  decrease of VEGF protein concentration: 100%
VEGF; 40 μM
  VEGF: 0 ± 0 pg/mL
TNF-α; P<0.05
  TNF-α levels in mice blood induced by LPS: decreased significantly
TNF-α; serum 150 min after LPS 40 mg/kg IP, compounds 25 mg/kg then 3 x 12.5 mg/kg IP (dexamethasone 0.4 then 3 x 0.2 mg/kg)
  TNF-α: 601.6 ± 211.9 pg/mL
DSS-induced IBD
  macroscopic and microscopic diseases scores: significantly decreased
TPA-induced ear edema
  % edema inhibition: 85% and 85.2%
Human PBMC
  pIC50: 5.13
